A short description of this data set: gradient 5% acetonitrile 3 min, to 50% in 2 min, to 85% in 15 min, held 3 min, 100 µL/min. The following applies: column: Zorbax Extend-C18 2.1 x 50 mm; eluents: water / acetonitrile, 0.1% formic acid. The method, boiled down:
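Pure standards were run in mixtures of ~100 molecules by HPLC coupled to a quadrupole time-of-flight mass spectrometer. The column was a Zorbax Extend-C18 (2.1 × 50 mm, 1.8 μm) at 100 μL/min, with water and acetonitrile each containing 0.1% formic acid, in positive and negative ionization mode. Dead and dwell volumes were 40 μL and 900 μL. Retention time was taken from computationally picked adduct peaks, each manually inspected, with data collected over 3 months.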
`Cc1cc2c(cc1S(=O)(=O)N1CCCC1C(=O)NCc1ccccc1)OCC(=O)N2` (centres undefined) displayed an RP-LC retention time of 721 s.

`CNC(=O)N1CCc2ccc(C(=O)NC(C)C)cc21` gave an RP-LC retention time of 625 s.

Molecule `CC1=C(c2ccc(C)cc2)S(=O)(=O)N=C1N1CCCN(C(=O)C2CC2)CC1` showed an RP-LC retention time of 581 s.

Consider `Cc1ccc(Oc2nccnc2N2CCCC(C(=O)NC(C)c3ccc(C)c(C)c3)C2)cc1` (centres undefined), for which the RP-LC retention time was 1150 s.

`Cc1ccc(CNC(=O)C2(C)CCN(S(=O)(=O)c3ccc(Br)cc3)CC2)cc1` came in with an RP-LC retention time of 1030 s.

Molecule `O=C(Cc1cccs1)Nc1ccc(SCc2nnc(-c3ccccc3)o2)cc1` yielded an RP-LC retention time of 940 s.

For `CC1=CC2(C)NC(=O)C(C)C12` (centres undefined), the RP-LC retention time was determined as 710 s.

Regarding `CC(C)CNC(=O)CC1Sc2ncccc2N(CC(C)C)C1=O` (centres undefined), the RP-LC retention time came to 791 s.

For the molecule `CCCOc1ccc(-c2noc(Cc3nc(-c4ccc5c(c4)OCO5)cs3)n2)cc1`, the RP-LC retention time was 1310 s.

The molecule `CC(C)n1cnc2ccc(-c3noc(CCc4ccccc4)n3)cc21` yielded an RP-LC retention time of 797 s.

`CCn1nc(-c2nc(-c3ccc(Cl)cc3)no2)ccc1=O` returned an RP-LC retention time of 1030 s.

As for `CC1=NS(=O)(=O)N(Cc2ccccc2)C=C1C(=O)OCc1nc(-c2ccccc2Cl)no1`, the RP-LC retention time is 1130 s.

Regarding `CCn1ccc2cc(S(=O)(=O)N3CCC(C(=O)NCc4cccnc4)CC3)ccc21`, the RP-LC retention time is 653 s.

With `O=C(CSc1nnc(NC(=O)c2c(F)cccc2Cl)s1)c1ccccc1`, the RP-LC retention time was 888 s.

With `Cc1nc2ccn(Cc3ccco3)c(=O)c2cc1C(=O)NCc1ccco1`, the RP-LC retention time was 718 s.

Take `CCOCc1nc(C2CCCN2C(=O)c2ccsc2)no1` (centres undefined): the RP-LC retention time turned out to be 724 s.

For `CCC(C)NC(=O)c1nccnc1NC(=O)c1ccc(C)cc1` (centres undefined), the RP-LC retention time is 990 s.

In turn, `CC(=O)N1CCc2cc(N3CC(C(=O)Nc4ccccc4OC(F)(F)F)CC3=O)ccc21` (centres undefined) had an RP-LC retention time of 766 s.

On to `Cc1cc(C)c2c(-n3cccc3)nn(CC(=O)NCC3CCCO3)c2n1` (centres undefined), for which the RP-LC retention time came out at 753 s.

In turn, `CCS(=O)(=O)c1ccc2c(c1)N(Cc1nc(-c3cccc(OC)c3)no1)C(=O)CO2` displayed an RP-LC retention time of 883 s.

On to `COc1ccc(CCS(=O)(=O)NCC2(c3ccc(F)cc3)CC2)cc1`, for which the RP-LC retention time was 950 s.

In turn, `COc1ccc(NC(=O)c2c(C)oc3nc(C)nc(N4CCCC4)c23)cc1` had an RP-LC retention time of 704 s.

Regarding `CC1CCCN(c2nn(CC(=O)Nc3ccccc3F)c(=O)c3ccccc23)C1` (centres undefined), the RP-LC retention time was 1140 s.

For `CCN1CCCC1CNC(=O)c1nnc(-c2ccc(S(=O)(=O)N3CCC(C)CC3)cc2)o1` (centres undefined), the RP-LC retention time is 703 s.

Take `CC(C)Oc1ccccc1CN1CCC2(CC1)CC(C)(O)CCO2` (centres undefined): the RP-LC retention time stood at 627 s.

For the molecule `CCOc1ccc(CNC(=O)C2(c3ccc(NC(C)=O)cc3)CCCCC2)cc1`, the RP-LC retention time was 866 s.

In turn, `c1ccc(-c2noc(COC3CCCN(C4CCOCC4)C3)n2)cc1` (centres undefined) gave an RP-LC retention time of 628 s.

Take `Cn1c(=O)c(N2CCC(NC(=O)NCc3cccc(F)c3)CC2)nc2ccccc21`: the RP-LC retention time is 816 s.

As to `Cn1ncc2c3ccccc3n(CC(=O)N3CCN(C4CCCCC4)CC3)c2c1=O`, the RP-LC retention time was 622 s.

The molecule `Cc1ccc2nc(C(=O)N3CCN(c4cccc(C)c4C)CC3)cn2c1` gave an RP-LC retention time of 804 s.

`O=C(NC1CC1)[C@@H]1C[C@H](Oc2ccccc2)CN1C(=O)c1ccsc1` yielded an RP-LC retention time of 733 s.

Molecule `N=C(CC(O)COc1ccccc1-c1ccccc1)N1CCCCC1` (centres undefined) had an RP-LC retention time of 793 s.

`Fc1cc(F)cc(Cn2cccc2-c2nc(-c3ccncc3)no2)c1` showed an RP-LC retention time of 1110 s.

`Cc1ccc(S(=O)(=O)Nc2ccc(C3(C(=O)NCC4CCCO4)CC3)cc2)cc1` (centres undefined) showed an RP-LC retention time of 824 s.

Turning to `Cn1c(=O)c(N2CCN(S(=O)(=O)c3ccc(Cl)cc3)CC2)nc2ccncc21`, the RP-LC retention time was 674 s.

`COc1ccc(OC)c(NC(=O)CN2CCc3[nH]c4c(C)ccc(C)c4c(=O)c3C2)c1`: the RP-LC retention time was 693 s.

For the molecule `COc1cc(NC(=O)c2ccc3cccc(O)c3n2)cc(OC)c1OC`, the RP-LC retention time was determined as 880 s.

In the case of `CCCCNC(=O)c1c(C)c2c(=O)n(CC(=O)Nc3ccc(Br)cc3)ncn2c1C`, the RP-LC retention time is 826 s.

Turning to `CC(C)NC(=O)Cc1nnc2cc(-c3nc(C4CC4)no3)ccn12`, the RP-LC retention time came out at 777 s.

For the molecule `Cc1cccc(NC(=O)Cn2nc3n(c2=O)CCCC3)c1C`, the RP-LC retention time was 632 s.

Take `Cc1cccc(-c2nc(-c3ccc4c(c3)oc(=O)n4C)no2)c1`: the RP-LC retention time turned out to be 1130 s.

As for `COc1ccc2nc(NC(=O)Cc3csc4nc(-c5ccc(C)c(C)c5)cn34)sc2c1`, the RP-LC retention time was 885 s.

Turning to `CCCCN(CC)C(=O)c1cc2c(=O)n3ccccc3nc2n1C`, the RP-LC retention time was determined as 813 s.

Molecule `CCCCOc1ccc(C(=O)Nc2nc(-c3ccc(OC)c(C)c3)cs2)cc1` showed an RP-LC retention time of 1240 s.

`CNC(=O)c1ccccc1Nc1cc(Nc2ccc(N3CCOCC3)cc2OC)ncc1C(F)(F)F` gave an RP-LC retention time of 764 s.

Regarding `COc1ccc(S(=O)(=O)CCC(=O)N2CCCC2c2nc(-c3ccc(Cl)cc3)no2)cc1` (centres undefined), the RP-LC retention time is 1000 s.

In the case of `Cc1noc(-c2ccc(NC(=O)c3cnn(-c4ccccc4)n3)cc2)n1`, the RP-LC retention time amounted to 980 s.

Take `COc1cccc(C(=O)Nc2ccc(CC(=O)NCC(F)(F)F)cc2)c1OC`: the RP-LC retention time came to 764 s.

Turning to `Cc1cc2nn(CC(=O)N3CCC(C)CC3)c(=O)n2c(Nc2ccc(C)c(C)c2)n1`, the RP-LC retention time is 941 s.

`O=S(=O)(Cc1ccccc1)N1CC(c2nc(Cc3ccccc3)no2)C1` returned an RP-LC retention time of 1010 s.

For `COc1ccc(C)cc1NC(=O)C1CCCN(S(=O)(=O)c2c[nH]c(C(=O)N3CCCC3)c2)C1` (centres undefined), the RP-LC retention time worked out at 824 s.

In turn, `Cc1ccc(F)cc1NC(=O)c1cc(C2CC2)n2nccc2n1` yielded an RP-LC retention time of 1140 s.

Regarding `O=C(CCSc1ccccc1)NCCn1nc(-c2ccc(Cl)cc2)ccc1=O`, the RP-LC retention time came to 600 s.

Turning to `O=C(NCc1ccco1)c1ccc2c(c1)nc1n2CCCCC1`, the RP-LC retention time was 596 s.

`CCOC(=O)c1ccc(NC(=O)CN2CC(c3nc(-c4cccc(Cl)c4)no3)C2)cc1` registered an RP-LC retention time of 650 s.

Regarding `COc1ccc(NC(=O)c2sc(-c3cn(C(C)C)c4ncccc34)nc2C)c(OC)c1`, the RP-LC retention time was found to be 1030 s.

Turning to `COc1ccccc1NC(=O)C1CCN(S(=O)(=O)c2cc(-c3noc(C)n3)cs2)CC1`, the RP-LC retention time worked out at 918 s.

Take `O=C(CCc1nnn2c1CN(C(=O)c1ccccc1F)CC2)NC1CC1`: the RP-LC retention time came out at 615 s.

Consider `CCC(C)(C)NC(=O)Cn1nc(C)c2nn(-c3ccccc3)c(C)c2c1=O`, for which the RP-LC retention time came to 860 s.

Source of the values: the METLIN SMRT retention time set (Domingo-Almenara et al. 2019).
